Measured values from PMC6269977, “Chemistry and Antiviral Activity of Arrabidaea pulchra (Bignoniaceae)” (Molecules, 2013).
Values after ≈ are worked out from the molar mass of the structure shown.

Legend:
[1] = test system: respiratory syncytial virus (RSV); conditions: isolated from Markhamia lutea; cited from earlier work
in vitro [2] = conditions: African green monkey
HSV-2 = conditions: cited from earlier work
Dengue virus 2 (DENV-2) = assay: microbe, parasite or virus in culture; assay type: cell-based; conditions: DENV2, viral titer TCID50/mL 1.0 × 10^4 in 72 h
[3] = test system: Murine encephalomyocarditis virus (EMCV); assay type: cell-based; conditions: viral titer TCID50/mL 1.0 × 10^6 in 48 h; NA = no activity in the assayed concentrations
HSV-1 = conditions: cited from earlier work
in vitro [4] = conditions: rhesus monkey
[5] = test system: Vaccinia virus Western Reserve (VACV-WR); assay type: cell-based
[6] = test system: Human herpesvirus 1 (HSV-1); assay: microbe, parasite or virus in culture; assay type: cell-based; conditions: for HSV-1 EC50 / EC50: viral titer TCID50/mL 2.5 × 10^6 in 48 h, NA = no activity in the assayed concentrations; for EC50: Human alphaherpesvirus 1

## C[C@@H]1O[C@@H](O[C@@H]2[C@@H](O)[C@H](OCCc3ccc(O)c(O)c3)O[C@H](CO)[C@H]2OC(=O)/C=C/c2ccc(O)c(O)c2)[C@H](O)[C@H](O)[C@H]1O [AP 1, verbascoside]
[1]
  RSV EC50: 0.80 µg/mL
In vitro [2]
  CC50: > 200 µg/mL
HSV-2
  HSV-2 EC50: 8.9 µg/mL
Dengue virus 2 (DENV-2)
  EC50: 3.4 ± 0.4 µg/mL (≈ 5.44 µM)
[3]
  EMCV EC50: not active
HSV-1
  HSV-1 EC50: 58.0 µg/mL
HSV-1; previous report
  anti-herpes activity: had not shown anti-herpes activity
In vitro [4]
  CC50: 12.9 ± 1.1 µg/mL (≈ 20.7 µM)
[5]
  VACV-WR EC50: not active
[6]
  HSV-1 EC50: no effect was observed

## C[C@H]1[C@H](C)CC[C@]2(C(=O)O)CC[C@]3(C)C(=CC[C@@H]4[C@@]5(C)CC[C@H](O)C(C)(C)[C@@H]5CC[C@]43C)[C@H]12 [AP 3, ursolic acid]
In vitro [2]
  CC50: 8.1 ± 0.9 µg/mL (≈ 17.7 µM)
Dengue virus 2 (DENV-2)
  EC50: 3.2 µg/mL (≈ 7.01 µM)
[3]
  EMCV EC50: not active
In vitro [4]
  CC50: 9.9 ± 1.3 µg/mL (≈ 21.7 µM)
[5]
  VACV-WR EC50: not active
[6]
  EC50: 6.2 ± 0.1 µg/mL (≈ 13.6 µM)
  HSV-1 EC50: low activity
[6]; at concentrations as low 2 μg/mL, Figure 4A
  HSV-1 virus inhibition: 50%

## Nc1nc2c(ncn2COCCO)c(=O)[nH]1 [Acyclovir, reference compound]
[6]
  EC50: 40 µg/mL (≈ 178 µM)
